Test results: US9126986B2, “Hetero-bicyclic derivatives as HCV inhibitors” (Janssen R&D Ireland, priority 2011, dated 2015)
Where two headings read alike, the source gives them in different places.

Experiments:
[1] = Counterscreen MT4-LTR-Luc; format: cell-based; conditions: human; MT4 T-cell line with long terminal repeat-Luc reporter
Excerpt: (§1) Counterscreen cell lines included a Huh-7 hepatoma cell line containing a human cytomegalovirus major immediate-early promoter-Luc construct (Huh7-CMV-Luc) and an MT4 T-cell line containing a long terminal repeat-Luc reporter (MT4-LTR-Luc).

[2] = tested on: HCV subgenomic replicon genotype 1b Con1 in Huh-7 lunet cells; test: HCV replicon assay, transient transfection, genotype 1b Con1; format: cell-based, HCV genotype 1b Con1; conditions: transiently transfected Huh-7 lunet, genotype 1b Con1, two days incubation, luciferase
Excerpt: (§2) In a transient set-up, a Huh-7 lunet hepatoma cell line was transiently transfected with an autonomously replicating RNA encoding a bi-cistronic expression construct. This construct comprises a firefly luciferase reporter gene preceding the NS3-NS5B subgenomic region of HCV (genotype 1a H77 or 1b Con1). Translation of the HCV subgenomic region is mediated by an internal ribosome entry site of encephalomyocarditis virus. The construct is furthermore flanked by 5′ and 3′ untranslated regions of HCV (genotype 1a H77 or 1b Con 1, respectively), which allow for replication of the RNA.
(§3) Cells were plated in 384 well plates in the presence of test and control compounds, which were added in various concentrations. Following an incubation of two days, replication of the HCV subgenomic replicon RNA was measured by assaying luciferase activity (using standard luciferase assay substrates and reagents and a Perkin Elmer ViewLux™ ultraHTS microplate imager). HCV subgenomic replicon containing cells in the control cultures have high luciferase expression in the absence of any inhibitor. The inhibitory activity of the compound was monitored, enabling a dose-response curve for each test compound. EC50 values were then calculated, which represent the amount of compound required to decrease the level of detected luciferase activity by 50%, or more specifically, to reduce the ability of the genetically linked HCV subgenomic RNA to replicate.

[3] = tested on: HCV subgenomic replicon genotype 1a H77 in Huh-7 lunet cells; test: HCV replicon assay, transient transfection, genotype 1a H77; format: cell-based, HCV genotype 1a H77; conditions: transiently transfected Huh-7 lunet, genotype 1a H77, two days incubation, luciferase
Excerpt: as §2, §3

[4] = Counterscreen Huh7-CMV-Luc; format: cell-based; conditions: Huh-7 hepatoma cell line with human CMV major immediate-early promoter-Luc construct
Excerpt: as §1

[5] = tested on: HCV replicon type 1b in Huh-Luc cells; test: HCV replicon assay, stable transfection (Huh-7 luc/neo, luciferase readout); format: cell-based, HCV type 1b; conditions: stably transfected Huh-Luc cells, genotype 1b, three days incubation, average where tested more than once, read-out: HCV-REP-HUH7LUC_EC50
Excerpt: The compounds of formula (I) were examined for inhibitory activity in the HCV replicon. This cellular assay is based on a bicistronic expression construct, as described by Lohmann et al. (Science (1999) 285: 110-113; Journal of Virology (2003) 77: 3007-3019) with modifications described by Krieger et al. (Journal of Virology (2001) 75: 4614-4624), and Lohmann et al. (Journal of Virology (2003) 77: 3007-3019) for genotype 1b and by Yi et al. (Journal of Virology (2004) 78: 7904-7915) for genotype 1a, in a multi-target screening strategy.
The method was as follows. The assay utilized the stably transfected cell line Huh-7 luc/neo (hereafter referred to as Huh-Luc). This cell line harbors an RNA encoding a bicistronic expression construct comprising the wild type NS3-NS5B regions of HCV type 1b translated from an Internal Ribosome Entry Site (IRES) from encephalomyocarditis virus (EMCV), preceded by a reporter portion (FfL-luciferase), and a selectable marker portion (neoR, neomycine phosphotransferase). The construct is flanked by 5′ and 3′ NTRs (non-translated regions) from HCV type 1b. Continued culture of the replicon cells in the presence of G418 (neoR) is dependent on the replication of the HCV RNA. The stably transfected replicon cells that replicate HCV RNA autonomously and to high levels, encoding inter alia luciferase, were used for screening the antiviral compounds.
The replicon cells were plated in 384 well plates in the presence of the test and control compounds which were added in various concentrations. Following an incubation of three days, HCV replication was measured by assaying luciferase activity (using standard luciferase assay substrates and reagents and a Perkin Elmer ViewLux™ ultraHTS microplate imager). Replicon cells in the control cultures have high luciferase expression in the absence of any inhibitor. The inhibitory activity of the compound was monitored on the Huh-Luc cells, enabling a dose-response curve for each test compound. EC50 values were then calculated, which represent the amount of compound required to decrease the level of detected luciferase activity by 50%, or more specifically, to reduce the ability of the genetically linked HCV replicon RNA to replicate.
Where a compound of formula (I) was tested more than once in the replicon assay, the average of all test results is given in this Table 1.

[6] = tested on: MT4-LTR-Luc cells; test: Counterscreen MT4-LTR-Luc; format: cell-based; conditions: MT4 T-cell line with long terminal repeat-Luc reporter
Excerpt: as §1

| SMILES | CC50 [1] | EC50 [2] | EC50 [3] | CC50 [4] | EC50 [5] | CC50 [6] | EC50 ([2]; Hepatitis C virus, Huh-7, 48 h) | EC50 ([3]; Hepatitis C virus, Huh-7, 48 h) | EC50 ([5]; Hepatitis C virus, Huh-7, 72 h) |
| --- | --- | --- | --- | --- | --- | --- | --- | --- | --- |
| COC(=O)N[C@H](C(=O)N1CCCC1c1cc(=O)c2ccc(-c3ccc(-c4ccc(-c5cnc([C@@H]6CCCN6C(=O)[C@@H](NC(=O)OC)C(C)C)[nH]5)cc4)cc3)cc2[nH]1)C(C)C (single isomer, unassigned) [Compound 3a] | > 984 nM | 0.025 nM | 0.008 nM | > 984 nM | 0.021 nM | – | – | – | – |
| COC(=O)N[C@H](C(=O)N1CCCC1c1cc(=O)c2ccc(-c3ccc(-c4ccc(-c5cnc([C@@H]6CCCN6C(=O)[C@@H](NC(=O)OC)C(C)C)[nH]5)cc4)cc3)cc2[nH]1)C(C)C (single isomer, unassigned) [Compound 3b] | – | 1.36 nM | 0.941 nM | – | 1.13 nM | > 984 nM | – | – | – |
| COC(=O)N[C@H](C(=O)N1CCCC1c1cc(=O)c2ccc(-c3ccc4c(c3)C(F)(F)c3cc(-c5c[nH]c([C@@H]6CCCN6C(=O)[C@@H](NC(=O)OC)C(C)C)n5)ccc3-4)cc2[nH]1)C(C)C (single isomer, unassigned) [Compound 5a] | > 984 nM | 0.013 nM | 0.007 nM | > 984 nM | 0.014 nM | – | – | – | – |
| COC(=O)N[C@H](C(=O)N1CCCC1c1cc(=O)c2ccc(-c3ccc4c(c3)C(F)(F)c3cc(-c5c[nH]c([C@@H]6CCCN6C(=O)[C@@H](NC(=O)OC)C(C)C)n5)ccc3-4)cc2[nH]1)C(C)C (single isomer, unassigned) [Compound 5b] | – | 0.63 nM | 0.21 nM | – | 0.228 nM | > 984 nM | – | – | – |
| COC(=O)N[C@H](C(=O)N1CCCC1c1[nH]c2cc(-c3ccc(-c4ccc(-c5cnc([C@@H]6CCCN6C(=O)[C@@H](NC(=O)OC)C(C)C)[nH]5)cc4)cc3)ccc2c(=O)c1F)C(C)C (single isomer, unassigned) [Compound 18a] | > 984 nM | 0.037 nM | 0.011 nM | > 984 nM | 0.03 nM | – | – | – | – |
| COC(=O)N[C@H](C(=O)N1CCCC1c1[nH]c2cc(-c3ccc(-c4ccc(-c5cnc([C@@H]6CCCN6C(=O)[C@@H](NC(=O)OC)C(C)C)[nH]5)cc4)cc3)ccc2c(=O)c1F)C(C)C (single isomer, unassigned) [Compound 18b] | – | 6.7 nM | 65.6 nM | – | 4.4 nM | > 984 nM | – | – | – |
| COC(=O)N[C@H](C(=O)N1CCC[C@H]1c1ncc(-c2ccc3c(c2)C(F)(F)c2cc(-c4ccc5c(=O)cc([C@@H]6C[C@@H]7CCCC[C@@H]7N6C(=O)[C@@H](NC(=O)OC)C(C)C)[nH]c5c4)ccc2-3)[nH]1)C(C)C [Compound 6] | > 984 nM | – | – | > 984 nM | – | – | 0.013 nM | 0.005 nM | 0.012 nM |
| COC(=O)N[C@H](C(=O)N1CCC[C@H]1c1cc(=O)c2cc(F)c(-c3ccc(-c4ccc(-c5cnc([C@@H]6CCCN6C(=O)[C@@H](NC(=O)OC)C(C)C)[nH]5)cc4)cc3)cc2[nH]1)C(C)C [Compound 7] | > 984 nM | – | – | > 984 nM | – | – | 0.021 nM | 0.042 nM | 0.008 nM |
| COC(=O)N[C@H](C(=O)N1CCC[C@H]1c1ncc(-c2ccc3c(c2)C(F)(F)c2cc(-c4ccc5c(=O)cc([C@@H]6[C@H]7CC[C@H](C7)N6C(=O)[C@@H](NC(=O)OC)C(C)C)[nH]c5c4)ccc2-3)[nH]1)C(C)C [Compound 8] | 770 nM | – | – | > 984 nM | – | – | 0.005 nM | 0.003 nM | 0.004 nM |
| COC(=O)N[C@H](C(=O)N1CCC[C@H]1c1nc(-c2ccc(-c3ccc(-c4ccc5c(=O)nc([C@@H]6CCCN6C(=O)[C@@H](NC(=O)OC)C(C)C)[nH]c5c4)cc3)cc2)c[nH]1)C(C)C [Compound 11] | > 984 nM | – | – | > 984 nM | – | – | 0.025 nM | 1.47 nM | 0.149 nM |
| COC(=O)N[C@H](C(=O)N1CCC[C@H]1c1ncc(-c2ccc3c(c2)C(F)(F)c2cc(-c4ccc5c(=O)[nH]c([C@@H]6CCCN6C(=O)[C@@H](NC(=O)OC)C(C)C)nc5c4)ccc2-3)[nH]1)C(C)C [Compound 12] | – | – | – | > 984 nM | – | – | 0.005 nM | 0.047 nM | 0.007 nM |
| COC(=O)N[C@H](C(=O)N1CCC[C@H]1C1=NS(=O)(=O)c2ccc(-c3ccc4c(c3)C(F)(F)c3cc(-c5cnc([C@@H]6CCCN6C(=O)[C@@H](NC(=O)OC)C(C)C)[nH]5)ccc3-4)cc2N1)C(C)C [Compound 14] | > 984 nM | – | – | > 984 nM | – | – | 0.017 nM | 0.005 nM | 0.008 nM |
| COC(=O)N[C@H](C(=O)N1CCC[C@H]1C1=NC2(COC2)c2ccc(-c3ccc4c(c3)C(F)(F)c3cc(-c5cnc([C@@H]6CCCN6C(=O)[C@@H](NC(=O)OC)C(C)C)[nH]5)ccc3-4)cc2N1)C(C)C [Compound 16] | > 984 nM | – | – | > 984 nM | – | – | 0.033 nM | 0.04 nM | 0.011 nM |
| COC(=O)N[C@H](C(=O)N1CCC[C@H]1C1=NC2(COC2)c2ccc(-c3ccc(-c4ccc(-c5cnc([C@@H]6CCCN6C(=O)[C@@H](NC(=O)OC)C(C)C)[nH]5)cc4)cc3)cc2N1)C(C)C [Compound 20] | > 984 nM | – | – | > 984 nM | – | – | < 0.019 nM | 0.46 nM | 0.023 nM |
| COC(=O)N[C@H](C(=O)N1CCC[C@H]1C1=NS(=O)(=O)c2ccc(-c3ccc(-c4ccc(-c5c[nH]c([C@@H]6CCCN6C(=O)[C@@H](NC(=O)OC)C(C)C)n5)cc4)cc3)cc2N1)C(C)C [Compound 22] | > 984 nM | – | – | > 984 nM | – | – | 0.012 nM | 0.054 nM | 0.012 nM |
| COC(=O)N[C@H](C(=O)N1CC2(C[C@H]1c1ncc(-c3ccc4c(c3)C(F)(F)c3cc(-c5ccc6c(=O)[nH]c([C@@H]7C[C@@H]8CCCC[C@@H]8N7C(=O)[C@@H](NC(=O)OC)C(C)C)nc6c5)ccc3-4)[nH]1)OCCO2)C(C)C [Compound 23] | > 984 nM | – | – | > 984 nM | – | – | 0.005 nM | 0.005 nM | 0.006 nM |
